Values quoted from earlier work, collected in patent US20070128260A1, “Aqueous polymer dispersions for stabilizing actives” (priority 2005, published 2007).
Where a name gives a salt, the structure may show the parent alone. Read-outs that look alike come from different tables or passages of the source.

Row | Structure (SMILES) | water sol. (25° C.) [mg/mL] | also measured
1 | CC(=O)N[C@H]1[C@H]([C@H](O)[C@H](O)CO)OC(C(=O)O)=C[C@@H]1N=C(N)N [Zanamivir] | – | water sol. (20° C.): 18 mg/mL
2 | Cc1cn([C@H]2C[C@H](N=[N+]=[N-])[C@@H](CO)O2)c(=O)[nH]c1=O [Zidovudine] | 20.1 | –
3 | CC(C)CN(C[C@@H](O)[C@H](Cc1ccccc1)NC(=O)O[C@H]1CCOC1)S(=O)(=O)c1ccc(N)cc1 [Amprenavir] | 0.04 | –
4 | Nc1ccn([C@@H]2CS[C@H](CO)O2)c(=O)n1 [Lamivudine] | – | water sol. (20° C.): 70 mg/mL
5 | Nc1nc2c(ncn2COCCO)c(=O)[nH]1 [Acylovir] | – | water sol. (37° C.): 2.5 mg/mL
6 | CC(C)CN(C[C@@H](OP(=O)(O)O)[C@H](Cc1ccccc1)NC(=O)O[C@H]1CCOC1)S(=O)(=O)c1ccc(N)cc1 [fosamprenavir] | 0.31 | –
7 | Nc1nc(NC2CC2)c2ncn([C@H]3C=C[C@@H](CO)C3)c2n1 [Abacavir sulfate] | 77 | –
8 | CC(C)[C@H](N)C(=O)OCCOCn1cnc2c(=O)[nH]c(N)nc21 [valacyclovir] | 174 | –
